Patent US11724980B2, “Quinones having high capacity retention for use as electrolytes in aqueous redox flow batteries” (President and Fellows of Harvard College, priority 2018, dated 2023)
Several values for one entry are separate records, joined by “and”; a condition that tells them apart may be missing. Identical values can stand only once. Like-named read-outs stand apart in the source and are kept apart here.

Key:
Type in all cases: physicochemical
physchem = settings: for solubility: thermodynamic from solid
Method: Solubility limits of all DBEAQ isomers were measured in their oxidized forms by adding the potassium salt of DBEAQ (prepared by reacting DBEAQ with potassium hydroxide in water) until no further solid could be dissolved. After filtering the mixture through a PTFE 0.45 μm syringe filter, a saturated solution of DBEAQ in KOH was obtained. The saturated solution was then diluted by a known amount, and the concentration was evaluated by UV-Vis (Ocean Optics Flame-S Spectrometer Assembly) at 280 and 364 nm. […]
The solubility limit of DPPEAQ was measured in the oxidized form by adding the potassium salt of DPPEAQ (prepared by reacting DPPEAQ with potassium hydroxide in water) until no further solid could be dissolved. The mixture was adjusted to pH 9. After filtering the mixture through a PTFE 0.45 μm syringe filter, a saturated solution of DPPEAQ at pH 9 was obtained. The saturated solution was then diluted by a known amount while maintaining a pH of 9, and the concentration was evaluated by UV-Vis (Agilent Cary 60 spectrophotometer). The concentration was calculated according to a pre-calibrated absorbance-concentration curve of known concentrations of DPPEAQ at pH 9.

[1] = Rotating disk electrode study with Levich analysis; settings: 5 mM in 1 M KOH, Levich plot
Method: Glassy carbon was used as the working electrode for all three-electrode CV tests. RDE experiments were conducted using a Pine Instruments Modulated Speed Rotator AFMSRCE equipped with a 5 mm diameter glassy carbon working electrode, a Ag/AgCl reference electrode (BASi, pre-soaked in 3 M NaCl solution), and a graphite counter electrode. The electrode was rotated at a specific speed while the voltage was linearly swept from −0.4 to −0.11 V vs. Ag/AgCl (FIG. 4A). […]. RDE experiments were conducted using a Pine Instruments Modulated Speed Rotator AFMSRCE equipped with a 5 mm diameter glassy carbon working electrode, a Ag/AgCl reference electrode (BASi, pre-soaked in a 3 M KCl solution), and a graphite counter electrode. […]

[2] = Cyclic voltammetry on glassy carbon electrode
Method: Glassy carbon was used as the working electrode for all three-electrode CV tests. RDE experiments were conducted using a Pine Instruments Modulated Speed Rotator AFMSRCE equipped with a 5 mm diameter glassy carbon working electrode, a Ag/AgCl reference electrode (BASi, pre-soaked in 3 M NaCl solution), and a graphite counter electrode. The electrode was rotated at a specific speed while the voltage was linearly swept from −0.4 to −0.11 V vs. Ag/AgCl (FIG. 4A). […].
A second CV experiment was performed in which 2,6-DBEAQ was dissolved in pH 14 KOH solution at a concentration of 2 mM. CV measurements were plotted in FIG. 4C. The standard equilibrium potential was determined to be −0.49 V vs. SHE. The separation between the peaks in the CV curves was 42 mV, indicating fairly rapid and reversible electrochemical reactions at the surface of the electrodes.

[3] = CV simulation as two one-electron reductions; settings: 5 mM in 1 M KOH
Method: FIG. 6. Capacitance-corrected CV of 5 mM 2,6-DBEAQ in 1 M KOH (solid grey line). The dashed red line represents the simulated total current arising from two successive one-electron reductions with reduction potentials of −0.517 and −0.511 V vs. SHE, according to the procedure outlined in a previous publication.^1 Each simulated reduction has a rate constant ko=7×10^−3 cm/s and α=0.5.
A first CV experiment was performed in which 2,6-DBEAQ was dissolved in pH 14 KOH solution at a concentration of 5 mM. CV measurements were plotted in FIG. 5A and include results for the isomers of 2,6-DBEAQ.
Following our previous study on 2,6-DHAQ^17 and literature reports^1,18 on quinone electrochemistry in the absence of proton donors, we simulated the CV of 2,6-DBEAQ as representing two reversible electron transfer steps at two different potentials E1 and E2. The separation between simulated redox potentials for the first (E1) and second (E2) electron reductions for 2,6-DBEAQ is considerably narrower than the corresponding peak separation for 2,6-DHAQ^17 (6 mV vs. 60 mV).
The pH dependence of the proton-coupled electron transfer (POET) redox reaction for a generalized anthraquinone (AQ) is often visualized by the nine-membered square scheme (FIG. 7). The horizontal direction indicates electron transfer (ET), and the vertical direction indicates proton transfer (PT or protonation). Under strongly alkaline conditions, where the pH is higher than the second pKa (pKa2) of the reduced AQ (AQ^2−), no protonation of the semiquinone anion will take place, and reduction proceeds via two ET steps, from AQ to a semiquinone (AQ-^●) at E1, and from AQ-^● to AQ^2− at E2 which is typically <E1. Depending on the value of E1-E2, the mechanism of AQ reduction in alkaline conditions can either be a concerted one-step, two-electron process or two single-electron processes. […]

## O=C([O-])CCCOc1ccc2c(c1)C(=O)c1ccc(OCCCC(=O)[O-])cc1C2=O.[K+].[K+] [2,6-DBEAQ, 4,4′-((9,10-anthraquinone-2,6-diyl)dioxy)dibutyric acid]
physchem; KOH, pH 12
  Maximum Solubility: 600 mM
physchem; pH 9, aqueous buffer, pH 9, read-out: solubility
  solubility: < 0.035 M
physchem; pH 12, aqueous buffer, KOH, pH 12, read-out: Maximum Solubility
  solubility: > 0.5 M
physchem; pH 12, aqueous buffer, pH 12 (value in brackets), read-out: Solubility (M) at pH 14 (pH 12)
  solubility: 0.6 M
physchem; pH 14, aqueous buffer, KOH, pH 14, read-out: Maximum Solubility
  solubility: > 1 M
physchem; pH 14, aqueous buffer, pH 14 (value outside brackets), read-out: Solubility (M) at pH 14 (pH 12)
  solubility: 1.1 M
[1]
  diffusion coefficient for the oxidized form: 1.58×10^−6 cm^2/s
[2]
  redox potential higher than that of 2,6-DHAQ: ~200 mV
[2]; Pourbaix diagram
  pH above which the potential is pH-independent: 11.5 and ~11.5
[2]; fit to data below pH 12
  Pourbaix diagram slope: −35 mV/pH
[2]; pH 14 KOH, 2 mM
  separation between the peaks in the CV curves: 42 mV
  standard equilibrium potential: −0.49 V vs. SHE
[3]; α=0.5
  rate constant ko of each simulated reduction: 0.007 cm/s
[3]; simulated CV
  E1-E2 separation: 6 mV
